This is an account of results in paper PMC4104761, “Identification of a novel lytic peptide for the treatment of solid tumours” (Genes & Cancer, 2014).

Series [1] has as its system 142Br normal human skin fibroblasts. Put plainly: LIVE/DEAD Viability/Cytotoxicity assay. In kind it is cell-based. Particulars: morphometric evaluation (Calcein), 35 µg Cypep-1/ml, 3 hours. As to the method: (§1) In order to visualise and quantify the cytotoxic action of Cypep-1 simultaneously, the LIVE/DEAD® Viability/Cytotoxicity Kit was employed according to the manufacturers instructions on monolayers of 30 000 cells in sterile 24 multi well dishes (Nunc™, Roskilde, Denmark), using the selected human osteosarcoma cell lines U2OS and SaOs2 as well as the two human fibroblast cell lines HFF1 (foreskin) and 142Br (skin).
(§2) The monolayer cultures were incubated with Cypep-1 for a period of 3 hours in concentrations ranging from 2.5 µg to 35 µg/ml. The cells were observed using an inverted fluorescence microscope (Nikon Eclipse 2000E, Tokyo, Japan) equipped with FITC (green fluorescence) and TRITC (red fluorescence) filter optics. The fluorescent cells were then photographed at a 10x magnification. The proportions of viable cells (live cells showing green fluorescence due to the presence of Calcein) and dead cells (red fluorescent due to the membrane penetration of Ethidium-Homodimer-1) were quantified using a Lucia G Morphometry System, Version 4.71 (Laboratory Imaging, Prague, Czech Republic).

In series [2] the test system is HFF1 normal human foreskin fibroblasts. The series is described as follows: LIVE/DEAD Viability/Cytotoxicity assay. Particulars: morphometric evaluation (Calcein), 35 µg Cypep-1/ml, 3 hours. In kind it is cell-based. As for the experimental part: as §1, §2
The test system of another series is U87 cells. The series is described as follows: Comparison of peptide variants by crystal violet staining and light microscopy. The source says: The sizes of the resulting in silico peptides varied from 10 to 30 amino acids. In order to facilitate their cellular internalisation, a TAT-HIV sequence was attached to the C-terminal ends. All peptides were […]. The peptide library was produced by Cambridge Peptides (Cambridge, UK). The peptides were then screened with the MTT (3-(4,5-dimethylthiazol-2-yl)-2,5-diphenyltetrazolium bromide) assay on U87 human glioma cells. Cellular morphology after peptide exposure was assessed by crystal violet staining and light microscopy. All experiments were performed in triplicate.
To increase the stability of the peptide, two further sub-formulations of the original formula (L-aa, containing only L-amino acids) were created: D-aa (retro inversed, (ri)), a peptide comprised of a backward sequence of the original in silico formula, yet made up solely of D-amino acids and an analogue peptide to original in silico peptide formula, comprised of D-amino acids. D-amino acids are highly resistant to protease mediated degradation and have a low immunogenic response. The respective peptide variants were tested in the following concentrations: 7.5, 10, 15, 20 and 25 µg/ml and incubated for 3 hours.

A further series concerns BALB/c mice. The series is described as follows: In vivo toxicity after tail vein injection. The arrangement: species or system mouse. Particulars: 100 µl bolus per animal. As for the experimental part:
Cypep-1 was injected into the lateral tail vein of 37 BALB/c mice (average age 131,7 days; average weight 25.2 g). In detail, the group consisted of 18 male (average weight 26.5g) and 19 female animals (average weight 23.9g). The respective peptide concentrations administered were increased systematically from 50µg up to 800µg Cypep-1 per bolus per animal. All Cypep-1 doses were adjusted to a total injection volume of 100µl 0,9% NaCl, which remained constant for all animals. Throughout the experiment, a group of 4 animals (2 males/ 2 females) received the same Cypep-1 concentrations per bolus, respectively. All injections were performed very slowly in order to avoid cardiac stress. The mice were then observed for a period of 24h with regards to signs of distress and pain (e.g. orbital tightening, flattened ear position, formation of nose and/or cheek bulge, whisker change, overall activity level) as well as potential toxic effects. During the first 2 hours, the animals were monitored continuously and then checked again at 4 h, 6 h, 12 h and 24 h post injection.

Series [3] relates to 4T1 murine mammary carcinoma cells. Put plainly: Time-lapse confocal microscopy. In kind it is cell-based. Particulars: 20 µg Cypep-1/ml for 3 hours; strongest effect between 40 and 55 min. As for the experimental part: 30.000 cells of the murine mammary carcinoma cell line 4T1 were seeded into a sterile 24 well dish (Nunc™, Roskilde, Denmark). After 24 hours, the monolayer culture was treated with 20µg Cypep-1/ml, followed by immediate observation of the cells at 37°C and 5% CO2 for a period of 3 hours by means of time-lapse confocal microscopy, using a Zeiss LSM510 Meta System (Carl Zeiss AG, Jena, Germany), equipped with both bright field optics and red fluorescence optics at 595nm. The same experiment was repeated as described above with 4T1 cells that had previously been stably transfected with red fluorescent protein, using a dsRed-expressing lentiviral vector pWPXL-dsRED as previously described by Niclou et al..

Series [4] in a line: Liposome leakage assay (ANTS/DPX fluorescence). As to conditions: 25°C, pH 7.4, fluorescence at 510 nm, triplicate; for leakage of ANTS from liposomes: 0 to 90 µg/ml. In kind it is biochemical. As to the method: To assess the membranolytic effect of Cypep-1 on the integrity of phospholipid model membranes, liposome leakage assays monitored by fluorescence spectroscopy were performed on 200 nm liposomes as described earlier. […] (purchased from CPC Scientific, San Jose, CA) was used as control in the leakage assays (Peptide A).
Negatively charged PBPS: EYL (1:1 mixture) as well as neutral pure EYL vesicles were used, in which both liposome types encapsulated the fluorochrome ANTS (8 aminonaphtalene-1,3,6 trisulfonic acid) and its corresponding quencher DPX (p-xylene-bis[N-pyridinium bromide]). In principle, a disruption of the liposomes' bi-layer induces leakage of the fluorophore ANTS. This entails an increase in fluorescence at 510 nm. All fluorescence spectra were recorded at 25°C and pH 7.4 on a Cary Eclipse Fluorescence Spectrophotometer (Varian Optical Spectroscopy Instruments, Mulgrave, Victoria, Australia). The respective titrations with Cypep-1 and the control Peptide A were performed in concentrations ranging from 0 µg/ml to 90 µg/ ml (0 µM to 26 µM). The fluorescence was measured for each concentration point of the concentration series, and all measurements were performed in triplicate. At the end of each measurement, Triton X-100 was added to a final concentration of 2 mM, to obtain the maximum membrane leakage. The resulting maximum fluorescence at 510 nm is defined as 100%, i.e. complete liposome breakdown. The induced leakages of the fluorophore ANTS due to exposure to the peptides were then evaluated as a percentage of its complete release after Triton X-100 exposure. The initial fluorescence intensity of the respective liposome solutions was defined as 0% leakage.

Usually viability stands for a per cent measure of how many cells are alive, often set against a control. On to YGRKKRRQRRRGKTLRVAKAIYKRYIE [Cypep-1], for which the viability in series [1] is given as 81%; in series [2], 64%. Further, in the series on U87 cells (U87 cells, 7.5, 10, 15, 20 and 25 µg/ml, 3 hours incubation), the “cytotoxic effect / potency by crystal violet staining” value is on record as “more potent than the parent L- amino acid formula”. In the series with U87 cells (U87 monolayer, 15 µg/ml, 3 hours exposure), the “monolayer appearance by light microscopy” value is reported as “extensive cell loss”. Moreover, the “dose with first signs of toxicity (seizure-like catatonic stupor)” value in the series with BALB/c mice (slow tail vein injection) amounted to 600 µg. In addition, the “dose with no signs of distress or pain” value in the series on BALB/c mice (slow tail vein injection, 24 h observation) was “up to 500 µg”. For the same sequence, the lethal dose in the series with BALB/c mice (tail vein injection, death within 5 - 10 min) is recorded as 800 µg. Moreover, in series [3], the “membrane disruption by time-lapse confocal microscopy” value is recorded as “extensive loss of cell content into the medium”. The “leakage of ANTS from liposomes” value in series [4] (200 nm EYL liposomes) and in series [4] (200 nm liposomes PBPS:EYL 1:1) was “significant leakage of ANTS” in each case. Besides, the EC50 in series [4] (ANTS/DPX leakage, 200 nm liposomes PBPS:EYL 1:1, read-out: S0.5, concentration necessary to achieve membrane disruption) was 8.3 ± 0.5 µM.
